Results: patent US20230277612A1, “SAPONIN DERIVATIVES FOR USE IN MEDICINE” (priority 2020, published 2023)
“And” between values parts separate entries of the source, which are not always exact repeats. Equal values may be shown once. Read-outs that look alike come from different tables or passages of the source.

What was measured:
[1] = tested on: EGFR expressing cells (HeLa); format: cell-based
[2] = tested on: EGFR expressing cells (A431); format: cell-based
HeLa cells = test: cells; format: cell-based
Protocol: (§1) (FIGS. 66a and 66B). Next toxicity was determined, for this the modified saponins were titrated on HeLa and A431 cells. […] Next toxicity was determined, for this the modified saponins were titrated on HeLa and A431 cells.

A431 cells = test: cells; format: cell-based
Protocol: as §1

human red blood cells = test: cells; format: cell-based
Protocol: Red blood cells (RBCs) were isolated from a buffy coat using a Ficoll gradient. The obtained RBC pellet (˜4-5 ml) was washed 2× with 50 ml DPBS (without Ca^2+/Mg^2+, PAN-Biotech GmbH). Cells were pelleted by centrifugation for 10 min, 800×g at RT. RBC were counted and resuspended at 500.000.000 c/ml in DPBS (without Ca^2+/Mg^2+), based on total cell count.
(§2) Saponin dilutions were prepared in DPBS (with Ca^2+/Mg^2+, PAN-Biotech GmbH), at 1.11× final strength. For positive lysis control a 0.02% Triton-X100 solution was prepared in DPBS^+/+. Of all compound solutions 135 μl was dispensed/well in a 96 well V-bottom plate. To this 15 μl RBC suspension was added and mixed shortly (10 sec-600 rpm). The plate was incubated 30 min at RT, with gentle agitation. Afterwards the plate was spun for 10 min at 800×g to pellet the RBC and 100-120 μl supernatant was transferred to a standard 96 wp (96 well-plate).
as §2, with “DPBS+/+.” for “DPBS^+/+.”

[3] = Critical micellar concentration (CMC) by ANS fluorescence; format: physicochemical; settings: for CMC: Table A7, determined in PBS
Protocol: The critical micellar concentration (CMC) of saponins derived from Saponaria officinalis (SO) (Table A7) and derived from Quillaja saponaria (QS) (Table A8, and Table A9) was determined by the method of DeVendittis et al. (A fluorimetric method for the estimation of the critical micelle concentration of surfactants, Analytical Biochemistry, Volume 115, Issue 2, August 1981, Pages 278-286) as follows:
(§3) The emission spectrum of 8-Anilinonaphthalene-1-sulfonic acid (ANS) in either purified water (MQ) or PBS (Dulbecco's PBS+/+) was determined at dry weight concentrations of saponins ranging from 1 to 1400 pM to cover the range below and above the CMC. Above the CMC, the fluorescence yield of ANS increases and the wavelength of maximum emission decreases due to portioning of the fluorescent dye into micelles. Fluorescence yields were recorded on a Fluoroskan Ascent FL (Thermo Scientific) at an excitation wavelength of 355 nm, and an emission wavelength of 460 nm. 6 μg at a concentration of 75.86 pM of ANS were used per sample and measurement.
The critical micellar concentration (CMC) of saponins was determined by the method of DeVendittis et al. (A fluorimetric method for the estimation of the critical micelle concentration of surfactants, Analytical Biochemistry, Volume 115, Issue 2, August 1981, Pages 278-286) as follows:
as §3, with “μM” for “pM”

[4] = HeLa, + 5 pM EGFdianthin, read-out: IC50 endosomal escape enhancing activity
[5] = A431, + 5 pM EGFdianthin, read-out: IC50 endosomal escape enhancing activity
[6] = Table A12, read-out: IC50 nM (Toxicity)
[7] = Table A6, saponin alone, read-out: IC50 nM (Toxicity)
[8] = Table A5, saponin alone, read-out: IC50 nM (Toxicity)
[9] = Table A5, read-out: IC50 nM (hemolysis)
[10] = Table A6, read-out: IC50 nM (hemolysis)
[11] = saponin alone, read-out: IC50 toxicity
[12] = read-out: IC50 hemolytic activity
[13] = Homo sapiens, HeLa, Table A5, saponin alone, read-out: IC50 nM (Toxicity)
[14] = Homo sapiens, HeLa, saponin alone, read-out: IC50 toxicity
[15] = Table A5, HeLa cells, saponin titrated + 5 pM EGFdianthin, read-out: IC50 nM (Activity)

Molecule: CC[C@H](C)[C@H](C[C@H](O)CC(=O)OC1C(C)OC(OC(=O)[C@]23CCC(C)(C)CC2C2=CCC4[C@@]5(C)CC[C@H](OC6OC(C(=O)O)C(O)C(OC7OCC(O)C(O)C7O)C6OC6OC(CO)C(O)C(O)C6O)[C@@](C)(/C=N/NC(=O)CCCCCN6C(=O)C=CC6=O)C5CC[C@@]4(C)[C@]2(C)C[C@H]3O)C(OC2OC(C)C(OC3OCC(O)C(OC4OCC(O)(CO)C4O)C3O)C(O)C2O)C1O)OC(=O)C[C@@H](O)C[C@H](OC1OC(CO)C(O)C1O)[C@@H](C)CC (some centres unmarked) [QS21-Ald-EMCH]
- IC50 [1, 4]: 900 nM
- IC50 [2, 5]: 900 nM
- IC50 (HeLa cells; [6]): > 30000 nM

Molecule: CC(=O)OC1C(C)OC(OC2C(C)OC(OC(=O)C34CCC(C)(C)CC3C3=CCC5C6(C)CCC(OC7OC(C(=O)NC(C)(CO)CO)C(O)C(OC8OCC(O)C(O)C8O)C7OC7OC(CO)C(O)C(O)C7O)C(C)(C=NNC(=O)CCCCCN7C(=O)C=CC7=O)C6CCC5(C)C3(C)CC4O)C(OC3OC(C)C(OC4OCC(O)C(OC5OC(CO)C(O)C(O)C5O)C4O)C(O)C3O)C2O)C(O)C1OC1OCC(O)C(O)C1O (centres unmarked) [SO1861-(Ald-EMCH)-(Glu-AMPD)]
- IC50 (A431 cells; [7]): > 100000 nM
- IC50 (HeLa cells; [8]): > 100000 nM
- IC50 (human red blood cells; [9]): > 1e+06 nM
- IC50 (human red blood cells; [10]): > 1e+06 nM
- CMC [3]: >30 µM

Molecule: CC(=O)OC1C(C)OC(OC2C(C)OC(OC(=O)[C@]34CCC(C)(C)CC3C3=CCC5[C@@]6(C)CC[C@H](OC7OC(C(=O)NC(C)(CO)CO)C(O)C(OC8OCC(O)C(O)C8O)C7OC7OC(CO)C(O)C(O)C7O)[C@@](C)(CO)C6CC[C@@]5(C)[C@]3(C)C[C@H]4O)C(OC3OC(C)C(OC4OCC(O)C(OC5OC(CO)C(O)C(O)C5O)C4O)C(O)C3O)C2O)C(O)C1OC1OCC(O)C(O)C1O (some centres unmarked) [SO1861-(Ald-OH)-(Glu-AMPD)]
- IC50 [1, 4]: 4000 nM
- IC50 [2, 5]: 4000 nM
- IC50 (A431 cells; [7]): > 100000 nM
- IC50 (HeLa cells; [8]): > 100000 nM
- CMC [3]: 50 ± 5 µM

Molecule: Aescin [reference compound]
- IC50 (A431 cells; [11]): > 30000 nM
- IC50 (HeLa cells; [6]): > 30000 nM
- IC50 (human red blood cells; [12]): 10000 nM

Molecule: CC(=O)OC1C(C)OC(OC2C(C)OC(OC(=O)[C@]34CCC(C)(C)CC3C3=CCC5[C@@]6(C)CC[C@H](OC7OC(C(=O)O)C(O)C(OC8OCC(O)C(O)C8O)C7OC7OC(CO)C(O)C(O)C7O)[C@@](C)(/C=N/NC(=O)CCCCCN7C(=O)C[C@H](SCCO)C7=O)C6CC[C@@]5(C)[C@]3(C)C[C@H]4O)C(OC3OC(C)C(OC4OCC(O)C(OC5OC(CO)C(O)C(O)C5O)C4O)C(O)C3O)C2O)C(O)C1OC1OCC(O)C(O)C1O (some centres unmarked) [SO1861-Ald-EMCH-blocked]
- IC50 (HeLa cells; [13]): > 100000 nM
- IC50 (HeLa cells; [14]): > 100000 nM
- IC50 (human red blood cells; Homo sapiens, Erythrocyte, Table A5, read-out: IC50 nM (hemolysis)): 300000 nM
- IC50 (human red blood cells; Homo sapiens, Erythrocyte, Table A6, read-out: IC50 nM (hemolysis)): 300000 nM
- IC50 (human red blood cells; Homo sapiens, Erythrocyte, read-out: IC50 hemolytic activity): 300000 nM
- CMC [3]: 50 ± 5 µM

Molecule: CC[C@H](C)[C@H](C[C@H](O)CC(=O)OC1C(C)OC(OC(=O)[C@]23CCC(C)(C)CC2C2=CCC4[C@@]5(C)CC[C@H](OC6OC(C(=O)NC(C)(CO)CO)C(O)C(OC7OCC(O)C(O)C7O)C6OC6OC(CO)C(O)C(O)C6O)[C@@](C)(/C=N/NC(=O)CCCCCN6C(=O)C=CC6=O)C5CC[C@@]4(C)[C@]2(C)C[C@H]3O)C(OC2OC(C)C(OC3OCC(O)C(OC4OCC(O)(CO)C4O)C3O)C(O)C2O)C1O)OC(=O)C[C@@H](O)C[C@H](OC1OC(CO)C(O)C1O)[C@@H](C)CC (some centres unmarked) [QS21-(Ald-EMCH)-(Glu-AMPD)]
- IC50 (HeLa cells; [6]): > 30000 nM
- IC50 (human red blood cells; Table A12, read-out: IC50 nM (hemolysis)): > 300000 nM
- IC50 (human red blood cells; [12]): > 300000 nM

Molecule: CC(=O)OC1C(C)OC(OC2C(C)OC(OC(=O)[C@]34CCC(C)(C)CC3C3=CCC5[C@@]6(C)CC[C@H](OC7OC(C(=O)O)C(O)C(OC8OCC(O)C(O)C8O)C7OC7OC(CO)C(O)C(O)C7O)[C@@](C)(C=O)C6CC[C@@]5(C)[C@]3(C)C[C@H]4O)C(OC3OC(C)C(OC4OCC(O)C(OC5OCC(O)C(O)C5O)C4O)C(O)C3O)C2O)C(O)C1OC1OCC(O)C(O)C1O (some centres unmarked) [SO1832, reference compound]
- IC50 (human red blood cells; [12]): ~10000 nM

Molecule: CC(=O)OC1C(C)OC(OC2C(C)OC(OC(=O)C34CCC(C)(C)CC3C3=CCC5C6(C)CCC(OC7OC(C(=O)O)C(O)C(OC8OCC(O)C(O)C8O)C7OC7OC(CO)C(O)C(O)C7O)C(C)(C=NNC(=O)CCCCCN7C(=O)C=CC7=O)C6CCC5(C)C3(C)CC4O)C(OC3OC(C)C(OC4OCC(O)C(OC5OC(CO)C(O)C(O)C5O)C4O)C(O)C3O)C2O)C(O)C1OC1OCC(O)C(O)C1O (centres unmarked) [Molecule 2]
- CMC compared to corresponding underivatised saponin [3]: increased CMC

Molecule: CC1OC(OC2C(C)OC(OC(=O)[C@]34CCC(C)(C)CC3C3=CCC5[C@@]6(C)CC[C@H](OC7OC(C(=O)O)C(O)C(OC8OCC(O)C(O)C8O)C7OC7OC(CO)C(O)C(O)C7O)[C@@](C)(CO)C6CC[C@@]5(C)[C@]3(C)C[C@H]4O)C(OC3OC(C)C(OC4OCC(O)C(OC5OC(CO)C(O)C(O)C5O)C4O)C(O)C3O)C2O)C(O)C(OC2OCC(O)C(O)C2O)C1O (some centres unmarked) [SO1861-(Ald-OH)-(Ac—OH)]
- IC50 (A431 cells; [7]): > 100000 nM
- IC50 (HeLa cells; [8]): > 100000 nM
- IC50 (human red blood cells; [9]): 200000 nM
- IC50 (human red blood cells; [10]): 200000 nM
- IC50 (human red blood cells; [12]): 200000 nM
- CMC [3]: >280 µM

Molecule: QS21 [reference compound]
- IC50 [1, 4]: 200 nM
- IC50 [1, 15]: 200 nM
- IC50 ([1]; Table A12, HeLa cells, + 5 pM EGFdianthin, read-out: IC50 nM (Activity)): 200 nM
- IC50 [2, 5]: 90 nM
- IC50 (HeLa cells; [11]): 6000 nM and 10000 nM

Molecule: CC(=O)OC1C(C)OC(OC2C(C)OC(OC(=O)[C@]34CCC(C)(C)CC3C3=CCC5[C@@]6(C)CC[C@H](OC7OC(C(=O)NC(C)(CO)CO)C(O)C(OC8OCC(O)C(O)C8O)C7OC7OC(CO)C(O)C(O)C7O)[C@@](C)(C=O)C6CC[C@@]5(C)[C@]3(C)C[C@H]4O)C(OC3OC(C)C(OC4OCC(O)C(OC5OC(CO)C(O)C(O)C5O)C4O)C(O)C3O)C2O)C(O)C1OC1OC(C)C(O)C(O)C1O (some centres unmarked) [SO1861-Glu-AMPD]
- CMC [3]: 50 ± 5 µM

Molecule: CC(=O)OC1C(C)OC(OC2C(C)OC(OC(=O)[C@]34CCC(C)(C)CC3C3=CCC5[C@@]6(C)CC[C@H](OC7OC(C(=O)NCCN8C(=O)C=CC8=O)C(O)C(OC8OCC(O)C(O)C8O)C7OC7OC(CO)C(O)C(O)C7O)[C@@](C)(C=O)C6CC[C@@]5(C)[C@]3(C)C[C@H]4O)C(OC3OC(C)C(OC4OCC(O)C(OC5OC(CO)C(O)C(O)C5O)C4O)C(O)C3O)C2O)C(O)C1OC1OCC(O)C(O)C1O (some centres unmarked) [SO1861-Glu-AEM]
- IC50 (A431 cells; Homo sapiens, A-431, Table A6, saponin alone, read-out: IC50 nM (Toxicity)): > 100000 nM
- IC50 (A431 cells; Homo sapiens, A-431, text, saponin alone, read-out: IC50 toxicity): > 100000 nM
- IC50 (HeLa cells; [13]): > 100000 nM
- IC50 (HeLa cells; [14]): > 100000 nM
- CMC [3]: 45 ± 5 µM

Molecule: CC1OC(OC2C(C)OC(OC(=O)C34CCC(C)(C)CC3C3=CCC5C6(C)CCC(OC7OC(C(=O)NC(C)(CO)CO)C(O)C(OC8OCC(O)C(O)C8O)C7OC7OC(CO)C(O)C(O)C7O)C(C)(C=NNC(=O)CCCCCN7C(=O)C=CC7=O)C6CCC5(C)C3(C)CC4O)C(OC3OC(C)C(OC4OCC(O)C(OC5OC(CO)C(O)C(O)C5O)C4O)C(O)C3O)C2O)C(O)C(OC2OCC(O)C(O)C2O)C1O (centres unmarked) [SO1861-(Ald-EMCH)-(Ac—OH)-(Glu-AMPD)]
- IC50 [1, 15]: > 20000 nM
- IC50 ([2]; Table A6, A431 cells, saponin titrated + 5 pM EGFdianthin, read-out: IC50 nM (Activity)): > 20000 nM
- IC50 (A431 cells; [7]): > 100000 nM
- IC50 (HeLa cells; [8]): > 100000 nM
- IC50 (human red blood cells; [9]): > 1e+06 nM
- IC50 (human red blood cells; [10]): > 1e+06 nM
